Laboratory results as given in ChEMBL document CHEMBL3885881, “DrugMatrix”.

Organism: Rattus norvegicus
Assay: DrugMatrix - Regimen: Daily Repeat
Assay type: toxicity, organism-based, Sprague-Dawley
Set-up: regimen Daily Repeat, gender Male, age 6-8 weeks
Settings: in vivo, po, route oral GAVAGE, vehicle .5 % CMC; for ABSOLUTE BASOPHIL / ABSOLUTE EOSINOPHIL / ABSOLUTE LYMPHOCYTE / ABSOLUTE MONOCYTE / ABSOLUTE SEGMENTED NEUTROPHIL / BASOPHIL / EOSINOPHIL / ERYTHROCYTE COUNT / HEMATOCRIT / HEMOGLOBIN / LEUKOCYTE COUNT / LYMPHOCYTE / MEAN CORPUSCULAR HEMOGLOBIN / MEAN CORPUSCULAR HEMOGLOBIN CONCENTRATION / MEAN CORPUSCULAR VOLUME / MONOCYTE / NEUTROPHIL / NUCLEATED RED BLOOD CELLS / PLATELET COUNT: tissue Blood; for ALANINE AMINOTRANSFERASE / ALBUMIN / ALKALINE PHOSPHATASE / ASPARTATE AMINOTRANSFERASE / BLOOD UREA NITROGEN / CARBON DIOXIDE / CHLORIDE / CHOLESTEROL / CREATINE PHOSPHOKINASE / CREATININE / GLUCOSE / LACTATE DEHYDROGENASE / LIPASE / PHOSPHORUS / POTASSIUM / SODIUM / TOTAL BILIRUBIN / TOTAL PROTEIN / URIC ACID: tissue Plasma
[1] = 0 mg/kg, 72 h, dose level Control, time 3 day
[2] = 0 mg/kg, 120 h, dose level Control, time 5 day
[3] = 17 mg/kg, 72 h, dose level Low, time 3 day

SMILES: CN1CCN(CCCN2c3ccccc3Sc3ccc(Cl)cc32)CC1 [PROCHLORPERAZINE]
- ABSOLUTE BASOPHIL [1]: 0 CELLS/uL
- ABSOLUTE EOSINOPHIL [1]: 0 CELLS/uL
- ABSOLUTE LYMPHOCYTE [1]: 10913.67 CELLS/uL
- ABSOLUTE MONOCYTE [1]: 85.33 CELLS/uL
- ABSOLUTE SEGMENTED NEUTROPHIL [1]: 1401 CELLS/uL
- BASOPHIL [1]: 0%
- EOSINOPHIL [1]: 0%
- ERYTHROCYTE COUNT [1]: 5.57 x10E6/uL
- HEMATOCRIT [1]: 35.58%
- HEMOGLOBIN [1]: 13.8 G/DL
- LEUKOCYTE COUNT [1]: 12.4 x10E3/uL
- LYMPHOCYTE [1]: 88%
- MEAN CORPUSCULAR HEMOGLOBIN [1]: 24.78 pg
- MEAN CORPUSCULAR HEMOGLOBIN CONCENTRATION [1]: 38.82 G/DL
- MEAN CORPUSCULAR VOLUME [1]: 63.88 fL
- MONOCYTE [1]: 0.67%
- NEUTROPHIL [1]: 11.33%
- NUCLEATED RED BLOOD CELLS [1]: 0 /100WBC
- PLATELET COUNT [1]: 1162.33 x10E3/uL
- ALANINE AMINOTRANSFERASE [1]: 53 u/L
- ALBUMIN [1]: 4.17 G/DL
- ALKALINE PHOSPHATASE [1]: 374.5 u/L
- ASPARTATE AMINOTRANSFERASE [1]: 89.5 u/L
- BLOOD UREA NITROGEN [1]: 16.33 mg/dL
- CARBON DIOXIDE [1]: 29.17 mmol/L
- CHLORIDE [1]: 97.67 MEQ/L
- CHOLESTEROL [1]: 77 mg/dL
- CREATINE PHOSPHOKINASE [1]: 464.83 u/L
- CREATININE [1]: 0.14 mg/dL
- GLUCOSE [1]: 164 mg/dL
- LACTATE DEHYDROGENASE [1]: 155.5 u/L
- LIPASE [1]: 9.17 u/L
- PHOSPHORUS [1]: 12.4 mg/dL
- POTASSIUM [1]: 6.91 MEQ/L
- SODIUM [1]: 141.47 MEQ/L
- TOTAL BILIRUBIN [1]: 0.2 mg/dL
- TOTAL PROTEIN [1]: 5.95 G/DL
- URIC ACID [1]: 1.72 mg/dL
- ABSOLUTE BASOPHIL [2]: 0 CELLS/uL
- ABSOLUTE EOSINOPHIL [2]: 20.5 CELLS/uL
- ABSOLUTE LYMPHOCYTE [2]: 13871.67 CELLS/uL
- ABSOLUTE MONOCYTE [2]: 60.5 CELLS/uL
- ABSOLUTE SEGMENTED NEUTROPHIL [2]: 980.67 CELLS/uL
- BASOPHIL [2]: 0%
- EOSINOPHIL [2]: 0.17%
- ERYTHROCYTE COUNT [2]: 5.65 x10E6/uL
- HEMATOCRIT [2]: 35.63%
- HEMOGLOBIN [2]: 14.08 G/DL
- LEUKOCYTE COUNT [2]: 14.93 x10E3/uL
- LYMPHOCYTE [2]: 92.83%
- MEAN CORPUSCULAR HEMOGLOBIN [2]: 24.97 pg
- MEAN CORPUSCULAR HEMOGLOBIN CONCENTRATION [2]: 39.55 G/DL
- MEAN CORPUSCULAR VOLUME [2]: 63.13 fL
- MONOCYTE [2]: 0.33%
- NEUTROPHIL [2]: 6.67%
- NUCLEATED RED BLOOD CELLS [2]: 0 /100WBC
- PLATELET COUNT [2]: 1248.17 x10E3/uL
- ALANINE AMINOTRANSFERASE [2]: 45.17 u/L
- ALBUMIN [2]: 4.27 G/DL
- ALKALINE PHOSPHATASE [2]: 405.67 u/L
- ASPARTATE AMINOTRANSFERASE [2]: 74.17 u/L
- BLOOD UREA NITROGEN [2]: 15.5 mg/dL
- CARBON DIOXIDE [2]: 30.17 mmol/L
- CHLORIDE [2]: 100.67 MEQ/L
- CHOLESTEROL [2]: 57 mg/dL
- CREATINE PHOSPHOKINASE [2]: 239.5 u/L
- CREATININE [2]: 0.17 mg/dL
- GLUCOSE [2]: 165.67 mg/dL
- LACTATE DEHYDROGENASE [2]: 90.5 u/L
- LIPASE [2]: 8.83 u/L
- PHOSPHORUS [2]: 12.32 mg/dL
- POTASSIUM [2]: 7.03 MEQ/L
- SODIUM [2]: 142.65 MEQ/L
- TOTAL BILIRUBIN [2]: 0.18 mg/dL
- TOTAL PROTEIN [2]: 6.03 G/DL
- URIC ACID [2]: 1.98 mg/dL
- ABSOLUTE BASOPHIL [3]: 0 CELLS/uL
- ABSOLUTE EOSINOPHIL [3]: 0 CELLS/uL
- ABSOLUTE LYMPHOCYTE [3]: 10730.67 CELLS/uL
- ABSOLUTE MONOCYTE [3]: 90 CELLS/uL
- ABSOLUTE SEGMENTED NEUTROPHIL [3]: 1446 CELLS/uL
- BASOPHIL [3]: 0%
- EOSINOPHIL [3]: 0%
- ERYTHROCYTE COUNT [3]: 5.49 x10E6/uL
- HEMATOCRIT [3]: 34.9%
- HEMOGLOBIN [3]: 13.83 G/DL
- LEUKOCYTE COUNT [3]: 12.27 x10E3/uL
- LYMPHOCYTE [3]: 87.67%
- MEAN CORPUSCULAR HEMOGLOBIN [3]: 25.3 pg
- MEAN CORPUSCULAR HEMOGLOBIN CONCENTRATION [3]: 39.67 G/DL
- MEAN CORPUSCULAR VOLUME [3]: 63.77 fL
- MONOCYTE [3]: 0.67%
- NEUTROPHIL [3]: 11.67%
- NUCLEATED RED BLOOD CELLS [3]: 0.33 /100WBC
- PLATELET COUNT [3]: 1239 x10E3/uL
- ALANINE AMINOTRANSFERASE [3]: 45 u/L
- ALBUMIN [3]: 4.17 G/DL
- ALKALINE PHOSPHATASE [3]: 413.67 u/L
- ASPARTATE AMINOTRANSFERASE [3]: 85.33 u/L
- BLOOD UREA NITROGEN [3]: 15.33 mg/dL
- CARBON DIOXIDE [3]: 26 mmol/L
- CHLORIDE [3]: 99.33 MEQ/L
- CHOLESTEROL [3]: 67.67 mg/dL
- CREATINE PHOSPHOKINASE [3]: 343 u/L
- CREATININE [3]: 0.13 mg/dL
- GLUCOSE [3]: 151 mg/dL
- LACTATE DEHYDROGENASE [3]: 394.67 u/L
- LIPASE [3]: 9.67 u/L
- PHOSPHORUS [3]: 14.23 mg/dL
- POTASSIUM [3]: 6.98 MEQ/L
- SODIUM [3]: 143.17 MEQ/L
- TOTAL BILIRUBIN [3]: 0.2 mg/dL
- TOTAL PROTEIN [3]: 5.9 G/DL
- URIC ACID [3]: 1.5 mg/dL
